Measured values reported in patent publication US12534439B2, “Xanthohumol derivatives and methods for making and using” (Oregon State University, priority 2021, dated 2026).
Where two headings read alike, the source gives them in different places.

Legend:
[1] = test system: HFD-fed C57BL/6J mice; assay: Metabolic cages: indirect calorimetry, energy expenditure, motor activity; type: in vivo; conditions: for All movements (direct locomotion and fine movements) versus control: three dark and two light cycles; for Mean respiratory exchange ratio (RER) versus control: week 6; for Increase of mean energy expenditure (EE): week 6, normalized on body weight, dark and light cycles
Procedure: Measure of Metabolic Activity. Metabolic determinations were performed at week 6, with four mice from each treatment group housed in Promethion metabolic cages (Sable Systems, Las Vegas, NV, USA). The indirect calorimetry system consists of metabolic cages identical to regular cages with bedding, each equipped with food hoppers connected to load cells for food intake monitoring. Prior to data collection, all mice were acclimated to the cages for 8 hours. A standard 12 hours light/dark cycle was maintained throughout the calorimetry studies, and data was collected over three dark cycles and two light cycles. Metabolic measurements such as EE and respiratory exchange […] (calculated from the ratio of CO2 volume produced and O2 volume consumed) were measured. Motor activity and food intake were also recorded. JC-1 Mitochondrial Membrane Potential Assay. C2Cl2 cells were seeded in 96-well plates at 1×10^4 cells/mL. After 24 hours, the culture medium was replaced with fresh medium containing carbonyl cyanide p-(trifluoromethoxy) phenylhydrazone (FCCP) from Sigma-Aldrich (St Louis, MO, USA), XP, XN, or DMSO vehicle. Cells were incubated in the presence of the treatments for 1 h and 5,5′,6,6′-tetrachloro-1,1′,3,3′-tetraethylbenzimidazolylcarbocyanine iodide (JC-1) dye was added to each well following the manufacturer's protocol (Cayman Chemical, Ann Arbor, MI, USA). JC-1 aggregates were detected with excitation and emission wavelengths of 540 and 570 nm. JC-1 monomers were detected with excitation and emission wavelengths of 485 and 535 nm on a BioTek Synergy HT plate reader.

[2] = Quantification of XP and XN in plasma and cortex by UPLC-MS with or without glucuronidase digestion; type: in vivo, mice; conditions: for concentration at 11 weeks: C57BL/6J, mouse, without glucuronidase digestion, daily oral XP 30, XN 60 mg/kg body weight, mean ± SEM
Procedure: Quantification of XP and XN. For plasma extractions, ascorbic acid (5 μL, 10% m/m water, Sigma-Aldrich, St Louis, MO, USA) was added to 40 μL of plasma. For tissue extractions, 20 mg of cortex was extracted with 200 μL of 50% methanol in water and 10 μL of ascorbic acid (10% m/m water). Samples were incubated with or without 10 μL of glucuronidase (20 mg/mL, Sigma-Aldrich, St Louis, MO, USA) for 3 hours at 37° C. The samples were extracted with 200 μL of acetonitrile containing 100 ng/mL of [13C3]-XN. The supernatant was transferred to a new tube and vacuum-dried, and the pellet was reconstituted in 100 μL of 50% methanol in water. UPLC-MS was performed using a hybrid triple quadrupole linear ion trap mass spectrometer (4000 QTRAP, AB SCIEX, Toronto, Canada). The elution profile was set as follows: 5% B from 0 to 0.5 min, 5 to 100% B from 0.5 to 3 minutes, 1 minute hold at 100% B, followed by re-equilibration of the HPLC column at 5% B for 2 minutes. Selected reaction monitoring transitions used for quantification were m/z 353.1>119.1 for XN, m/z 379.3>321.3 for XP, and m/z 356.1>120.1 for the [13C3]-XN internal standard.
For plasma extractions, ascorbic acid (5 μL, 10% m/m water, Sigma Aldrich, St Louis, MO, USA) was added to 40 μL of plasma. Samples were incubated with or without 10 μL glucuronidase (20 mg/mL, Sigma Aldrich, St Louis, MO, USA) for 3 hr at 37° C. Samples were extracted with 200 μL of acetonitrile containing 100 ng/mL [^13C3]—XN^1. The supernatant was transferred to a new tube, vacuum-dried and the pellet was reconstituted in 100 μL of 50% methanol in water. UPLC-MS was performed using a hybrid triple quadrupole linear ion trap mass spectrometer (4000 QTRAP, AB SCIEX, Toronto, Canada) as previously reported with some modifications. The elution profile was set as follows: 5% solvent B from 0 to 0.5 minute, 5% to 100% B from 0.5-3 minutes, 1 minute hold at 100% B followed by re-equilibration of the HPLC column at 5% B for 2 minutes. Selected Reaction Monitoring transitions used for quantification were m/z 353.1>119.1 for XN, m/z 379.3>321.3 for XP and m/z 356.1>120.1 for [^13C3]—XN internal standard. XP and XN concentrations were calculated by the external calibration method using calibration curves constructed from pure XP and XN standards.

[3] = test system: UCP1; assay: Western blotting of UCP1 in skeletal muscle, BAT and WAT; type: in vivo; conditions: HFD-fed mice, versus control
Procedure: Western Blotting. Approximately 100 mg of frozen BAT and WAT was homogenized in RIPA buffer with protease and phosphatase inhibitors (Santa Cruz Biotechnology, Dallas, TX, USA). Tissues were sonicated for 30 seconds, and the homogenates were centrifuged at 15700 g for 10 minutes to collect the supernatants. Protein (30 μg) was separated by SDS-PAGE using 4-15% MP TGX Gels (Bio-Rad, Hercules, CA, USA) and blotted onto nitrocellulose membranes. The membranes were blocked with 5% nonfat milk for 90 minutes and incubated with antibodies against GAPDH (#0411, Santa Cruz Biotechnology, Dallas, TX, USA) or UCP1 (#10983, Genetex, Irvine, CA, USA) for 60 minutes. After a second reaction with secondary antibodies (horseradish peroxidase-conjugated IgG antibodies), the protein bands on the nitrocellulose membranes were visualized by enhanced chemiluminescence substrate on an electrochemical luminescence (ECL) imager (Thermo Fisher Scientific, Waltham, MA, USA). Band intensities were quantified by densitometry using Image J software.

[4] = test system: HFD-fed C57BL/6J mice; assay: AST and ALT enzymatic activities in liver homogenates; type: in vivo; conditions: for ALT / AST: 11 weeks, mean ± SEM
Procedure: Measure of Metabolic Parameters and Liver Enzymes. ALT and AST enzymatic activities and liver samples (n=4-8 per group) were homogenized in 10 mL of 100 mM
Tris (pH=7.8) per gram of tissue. The homogenates were centrifuged at 10 000 g for 15 minutes at 4° C., and the supernatants were tested for ALT and AST activity using colorimetric assay kits purchased from Cayman Chemical (Ann Arbor, MI, USA). Triglycerides and total cholesterol were analyzed with commercially available kits (Cayman Chemical, Ann Arbor, MI, USA). Plasma glucose at week 11 was measured with a colorimetric assay, and plasma insulin, MCP-1, IL-6, and PCSK9 were analyzed by ELISA kits purchased from Abcam (Cambridge, UK).

[5] = cortex, read-out: CORTEX concentration, Non-glucuronidated
[6] = plasma, read-out: PLASMA concentration, Non-glucuronidated

Structure (SMILES): COc1cc(O)c(CC=C(C)C)c(O)c1-c1cc(-c2ccc(O)cc2)n(C)n1 [XP, 4-(5-(4-hydroxyphenyl)-1-methyl-1H-pyrazol-3-yl)-5-methoxy-2-(3-methylbut-2-en-1-yl)benzene-1,3-diol]
- Percent ambulatory time versus control ([1]; mouse, in vivo): increased
- All movements (direct locomotion and fine movements) versus control [1]: increased
- Increase of locomotor movement (direct locomotion) ([1]; versus control): 75-135%
- Mean respiratory exchange ratio (RER) versus control [1]: increased
- Increase of mean energy expenditure (EE) ([1]; versus control): up to 27%
- Increase of mean energy expenditure (EE) ([1]; versus control, listed as 4-(5-(4-hydroxyphenyl)-1-methyl-1h-pyrazol-3-yl)-5-methoxy-2-(3-methylbut-2-en-1)): 20-27%
- concentration at 11 weeks [2, 5]: 40.1 ± 2.8 ng/g
- concentration at 11 weeks [2, 6]: 43.5 ± 3.54 ng/mL
- Phase 1 metabolism ([2]; plasma of treated mice): resistant to phase 1 metabolism
- Metabolites detected in plasma ([2]; plasma of treated mice, mass spectrometric analysis): XP-glucuronide was the only metabolite
- UCP1 protein expression in skeletal muscle, BAT, or WAT [3]: no effect
- AST and ALT test results versus control [4]: did not change substantially
- ALT [4]: 0.38 ± 0.07 U/mL
- AST [4]: 0.30 ± 0.06 U/mL
- Decrease in liver enzymes (AST, ALT) ([4]; versus control, not significant): 30%

Structure (SMILES): COc1cc(O)c(CC=C(C)C)c(O)c1C(=O)/C=C/c1ccc(O)cc1 [XN, xanthohumol]
- Locomotor movement increased versus control ([1]; p=0.06): not
- All movements (direct locomotion and fine movements) versus control [1]: increased
- Mean respiratory exchange ratio (RER) versus control [1]: increased
- Increase of mean energy expenditure (EE) ([1]; versus control): 4-8%
- concentration at 11 weeks [2, 5]: 59.7 ± 16.8 ng/g
- concentration at 11 weeks [2, 6]: 13.2 ± 3.07 ng/mL
- UCP1 protein expression in WAT [3]: decreased
- UCP1 protein expression in skeletal muscle and BAT [3]: no significant changes
- AST and ALT test results versus control [4]: did not change substantially
- ALT [4]: 0.22 ± 0.06 U/mL
- AST [4]: 0.16 ± 0.03 U/mL
